According to ChEMBL document CHEMBL1122452, “Mitomycin C analogues with secondary amines at position 7” (J Med Chem, 1983):

Tests used:
P388 [1] = assay: Leukopenia % change in WBC at optimal dose on 3rd day.; assay type: functional, Mus musculus
P388 [2] = assay: Maximum % T/C against P-388 murine leukemia cells in mice.; assay type: functional, Mus musculus
P388 [3] = assay: Maximum % T/C with mitomycin C against P-388 murine leukemia cells in mice.; assay type: functional, Mus musculus
P388 [4] = assay: Minimum effective dose required for antitumor activity against P-388 murine leukemia cells in mice.; assay type: functional; settings: Mus musculus, read-out: MED
P388 [5] = assay: Optimal dose required for antitumor activity against P-388 murine leukemia cells in mice.; assay type: functional, Mus musculus
[6] = E1/2 value related to the saturated calomal electrode.; assay type: ADME; parameters: unit not given here
B16 [7] = assay: Average weight change after ip administration of a dose of 1 mg/kg/day in B-16 melanoma in mice; assay type: functional, Mus musculus; settings: route intraperitoneal
B16 [8] = assay: Average weight change after ip administration of a dose of 2 mg/kg/day in B-16 melanoma in mice; assay type: functional, Mus musculus; settings: route intraperitoneal
B16 [9] = assay: Average weight change after ip administration of a dose of 3 mg/kg/day in B-16 melanoma in mice; assay type: functional, Mus musculus; settings: route intraperitoneal
B16 [10] = assay: Average weight change after ip administration of a dose of 4 mg/kg/day in B-16 melanoma in mice; assay type: functional, Mus musculus; settings: route intraperitoneal
B16 [11] = assay: Tumor free survivors on 62nd day after ip administration of a dose of 1 mg/kg/day in B-16 melanoma in mice; assay type: functional, Mus musculus; settings: route intraperitoneal
B16 [12] = assay: Tumor free survivors on 62nd day after ip administration of a dose of 2 mg/kg/day in B-16 melanoma in mice; assay type: functional, Mus musculus; settings: route intraperitoneal
B16 [13] = assay: Tumor free survivors on 62nd day after ip administration of a dose of 3 mg/kg/day in B-16 melanoma in mice; assay type: functional, Mus musculus; settings: route intraperitoneal
B16 [14] = assay: Tumor free survivors on 62nd day after ip administration of a dose of 4 mg/kg/day in B-16 melanoma in mice; assay type: functional, Mus musculus; settings: route intraperitoneal
B16 [15] = assay: Median survival time (% T/C) after ip administration of a dose of 1 mg/kg/day in B-16 melanoma in mice; assay type: functional, Mus musculus; settings: route intraperitoneal
B16 [16] = assay: Median survival time (% T/C) after ip administration of a dose of 2 mg/kg/day in B-16 melanoma in mice; assay type: functional, Mus musculus; settings: route intraperitoneal
B16 [17] = assay: Median survival time (% T/C) after ip administration of a dose of 3 mg/kg/day in B-16 melanoma in mice; assay type: functional, Mus musculus; settings: route intraperitoneal
B16 [18] = assay: Median survival time (% T/C) after ip administration of a dose of 4 mg/kg/day inB-16 melanoma in mice; assay type: functional, Mus musculus; settings: route intraperitoneal
B16 [19] = assay: Average weight change after ip administration of a dose of 5 mg/kg/day inB-16 melanoma in mice; assay type: functional, Mus musculus; settings: route intraperitoneal
B16 [20] = assay: Tumor free survivors on 62nd day after ip administration of a dose of 2 mg/kg/day in B-16 melanoma in mice; out of 10; assay type: functional, Mus musculus; settings: route intraperitoneal

| Structure (SMILES) | Change in WBC (P388 [1]) | T/C (P388 [2]) | T/C (P388 [3]) | minimal effective dose (P388 [4]) | Dose (P388 [5]) | E1/2 [6] | other results |
| --- | --- | --- | --- | --- | --- | --- | --- |
| COC12[C@@H]3N[C@@H]3CN1C1=C(C(=O)C(N3CC=CC3)=C(C)C1=O)[C@@H]2COC(N)=O (some centres not stated) | -13% | 216% | 268% | 0.2 mg/kg | 12.8 mg/kg |  |  |
| COC12[C@@H]3N[C@@H]3CN1C1=C(C(=O)C(N3CCN(c4ccc(C(C)=O)cc4)CC3)=C(C)C1=O)[C@@H]2COC(N)=O (some centres not stated) | 40% | 161% | 200% | 0.4 mg/kg | 3.2 mg/kg |  |  |
| COC(=O)C1CN1C1=C(C)C(=O)C2=C(C1=O)[C@H](COC(N)=O)C1(OC)[C@@H]3N[C@@H]3CN21 (some centres not stated) |  | 147% | 288% | 1.6 mg/kg | 6.4 mg/kg |  |  |
| COC12[C@@H]3N[C@@H]3CN1C1=C(C(=O)C(N3CCCC3)=C(C)C1=O)[C@@H]2COC(N)=O (some centres not stated) | 64% | >333% | 161% | 0.4 mg/kg | 25.6 mg/kg | 0.35 |  |
| COC12[C@@H]3N[C@@H]3CN1C1=C(C(=O)C(N3CCCC(C)C3)=C(C)C1=O)[C@@H]2COC(N)=O (some centres not stated) |  | 238% | 319% | 0.2 mg/kg | 25.6 mg/kg |  |  |
| CO[C@@]12[C@H](COC(N)=O)C3=C(C(=O)C(C)=C(N)C3=O)N1C[C@@H]1N[C@@H]12 [MITOMYCIN] | -42% | 161% |  | 0.2 mg/kg | 3.2 mg/kg | -0.45 | Average weight change (B16 [7]): 0.2 g; Average weight change (B16 [8]): 0.5 g; Average weight change (B16 [9]): -0.1 g; Average weight change (B16 [10]): -0.1 g; Cures (B16 [11]): 0; Cures (B16 [12]): 0; Cures (B16 [13]): 0; Cures (B16 [14]): 0; T/C (B16 [15]): 155%; T/C (B16 [16]): 152%; T/C (B16 [17]): 165%; T/C (B16 [18]): 200% |
| COC12[C@@H]3N[C@@H]3CN1C1=C(C(=O)C(N3CC3C(N)=O)=C(C)C1=O)[C@@H]2COC(N)=O (some centres not stated) |  | 206% | 233% | 0.8 mg/kg | 6.4 mg/kg |  |  |
| COC12[C@@H]3N[C@@H]3CN1C1=C(C(=O)C(N3CC3C#N)=C(C)C1=O)[C@@H]2COC(N)=O (some centres not stated) | 2% | 339% | 228% | 0.2 mg/kg | 12.8 mg/kg | 0.3 | Average weight change (B16 [8]): 0 g; Average weight change (B16 [9]): 0 g; Average weight change (B16 [19]): -1.3 g; Cures (B16 [20]): 5; Cures (B16 [13]): 0; T/C (B16 [16]): 307%; T/C (B16 [17]): 65% |
| COC12[C@@H]3N[C@@H]3CN1C1=C(C(=O)C(N3CCSCC3)=C(C)C1=O)[C@@H]2COC(N)=O (some centres not stated) | 44% | 211% | 178% | 0.4 mg/kg | 3.2 mg/kg |  |  |
| COC12[C@@H]3N[C@@H]3CN1C1=C(C(=O)C(N3CCSC3)=C(C)C1=O)[C@@H]2COC(N)=O (some centres not stated) | 69% | 222% | 183% | 0.2 mg/kg | 25.6 mg/kg | 0.39 |  |
| CCOC(=O)C1CN1C1=C(C)C(=O)C2=C(C1=O)[C@H](COC(N)=O)C1(OC)[C@@H]3N[C@@H]3CN21 (some centres not stated) |  | 133% | 233% |  | 12.8 mg/kg |  |  |
| COC12[C@@H]3N[C@@H]3CN1C1=C(C(=O)C(N3CCc4ccccc43)=C(C)C1=O)[C@@H]2COC(N)=O (some centres not stated) |  | 150% | 288% | 0.8 mg/kg | 12.8 mg/kg |  |  |
| COC12[C@@H]3N[C@@H]3CN1C1=C(C(=O)C(N3CC3)=C(C)C1=O)[C@@H]2COC(N)=O (some centres not stated) | 11% | 266% | 300% | 0.025 mg/kg | 1.6 mg/kg | 0.31 |  |
